Results from patent EP2150534B1, “ISOQUINOLINONE DERIVATIVES AS NK3 ANTAGONISTS” (H. Lundbeck A/S, priority 2007, dated 2008).
Like-named read-outs stand apart in the source and are kept apart here.

What was measured:
human NK3 receptor [1] = molecular target: T1, human NK3 receptor (Homo sapiens, UniProt P29371); assay: NK3 receptor binding assay (SPA-based competition binding with 125I-NKB, membranes of BHK cells)
T1 construct: expressed in transfected cells; membranes prepared from them
T1 sequence (P29371 1-465): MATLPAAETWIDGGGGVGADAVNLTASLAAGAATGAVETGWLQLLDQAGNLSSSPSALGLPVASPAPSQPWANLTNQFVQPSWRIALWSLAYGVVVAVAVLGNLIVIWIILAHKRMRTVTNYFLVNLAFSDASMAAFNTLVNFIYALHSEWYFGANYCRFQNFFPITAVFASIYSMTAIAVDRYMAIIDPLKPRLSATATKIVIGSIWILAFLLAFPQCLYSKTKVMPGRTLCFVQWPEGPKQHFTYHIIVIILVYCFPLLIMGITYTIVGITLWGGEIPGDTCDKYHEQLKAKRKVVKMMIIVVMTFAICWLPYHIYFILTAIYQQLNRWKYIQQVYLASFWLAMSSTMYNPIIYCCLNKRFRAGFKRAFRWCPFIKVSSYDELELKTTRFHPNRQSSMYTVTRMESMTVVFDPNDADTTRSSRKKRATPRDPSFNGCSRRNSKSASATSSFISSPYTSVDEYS
Protocol: Membranepreparation: BHK cells stably expressing the human NK3 receptor were seeded in harvesting plates in Dulbeccos MEM containing GlutaMax (862 mg/l), 1 mM sodium pyruvate, 10% fetal calf serum, 1% Pen/Strep, I mg/ml G418 and were grown at 34 °C in a humidified atmosphere containing 10% CO2. To increase receptor expression, 10 µM trichotatin A was added to the media 24 hours before harvest of the cells at a confluency of app 90%. Prior to the harvesting, the cells were washed twice with PBS without Mg^2+ og Ca^2+ and subsequently scrapped of in 10 ml PBS pr harvesting plate. The cells suspension were centrifuged at 1500xG in three minutes before resuspension in 15 mM Tris-HCl pH 7,5 buffer containing 2 mM MgCl2; 0,3 mM EDTA and 1 mM EGTA (buffer A). The cell suspention was homogenised and subsequently centrifuged at 40000xG in 30 minutes. The membrane-pellet was resuspended in buffer A containing 250 mM sucrose, alliquoted and stored at - 80°C.
Affinity assay description: The assay was performed as a SPA-based competition-binding assay in a 50 mM Tris pH 7.4 assay buffer containing 120 mM NaCl, 3 mM MnCl2, 40 µg/ml bacitracin, 2 µg/ml Chymostatin, 1 µg/ml Phosphoramidon and 4 µg/ml Leupeptin. App 0.02 nM ^125I-NKB was mixed with test compounds before addition of 4 µg of the homogenised NK3 membrane preparation and 0,025 mg SPA beads in a total volume of 60 µl. The assay plate was subsequently under agitation incubated for 90 min at RT. The plate was centrifugated 10 minutes at 500xG and counted in a topcounter 5 minuttes pr well.
The non-specific binding constituted app 5 % of the total binding.
Data points were expressed in percent of the specific binding of ^125I-NKB and the IC50 values (concentration causing 50 percent inhibition of ^125I-NKB specific binding) were determined by non-linear regression analysis using a sigmoidal variable slope curve fitting. The dissociation constant (Ki) were calculated from the Cheng Prusoff equation (Ki = IG50/(1+(L/KD))), where the concentration of free radioligand L is approximated to the concentration of added ^125I-NKB in the assay (app 0,02 nM).
The KD of ^125I-NKB was determined to be 0,7 nM from three independent saturation assays each performed with duplicate determinations. Bmax was app 2 pmol/mg.

human NK3 receptor [2] = molecular target: T1, human NK3 receptor; assay: NK3 receptor efficacy and potency assay (FLIPR Calcium 4 assay, BHK cells; agonist and antagonist mode versus NKB); format: cell-based; settings: read-out: Potency cIC50
Protocol: BHK cells stably expressing the human NK3 receptor were seeded in 100 µl media in black walled clear-base 96-wells plates (Costar) aiming at a confluency of 95-100% at the day of assay. The assay was performed according to the FLIPR Calcium 4 Assay kit (Molecular Devices). At the day of the assay, the media was removed and the cells were washed once with the HBSS buffer (Hanks BSS buffer, pH 7,4 containing 20 mM Hepes) before 100 µl of a solution of the calcium assay reagent dissolved in the HBSS buffer containing 2,5 mM probinicid was added to the cells. The plates were incubated for 60 min at 34°C, 10% CO2 before use in the FLIPR for examination of fluorescence.
For efficacy and potency evaluation of compounds, these were diluted in HBSS buffer prior to test. For test of agonist activity, 25 µl of the diluted compound solution was added and the plate was analyzed for 5 minutes in the FLIPR. […] The plates were subsequently analyzed for 5 minutes before the assay was terminated. The maximal increase in fluorescence over background following each ligand addition was determined.

[3] = table of Example 10, affinity obtained as described in Example 9, read-out: Affinity Ki
[4] = Ki for the NK3 receptor, table of Example 9, 125I-NKB competition binding, read-out: Ki

Compound | Ki (human NK3 receptor [1]; [3]) [µM] | IC50 (human NK3 receptor [2]) [µM] | Ki (human NK3 receptor [1]; [4]) [µM]
Cc1c(C(=O)N[C@@H](c2cccc(F)c2)C2CC2)c2cccc(Cl)c2c(=O)n1-c1ccccc1 [Example 1bl, 8-Chloro-3-methyl-1-oxo-2-phenyl-1,2-dihydro-isoquinoline-4-carboylic acid [(R)-cyclopropyl-(3-fluoro-phenyl)-methyl]-amide] | 0.47 | – | –
CC[C@H](NC(=O)c1c(C)n(-c2ccccc2)c(=O)c2c(Cl)cccc12)c1ccccc1 [Example 1i, 8-Chloro-3-methyl-1-oxo-2-phenyl-1,2-dihydro-isoquinoline-4-carboxylic acid ((S)-1-phenyl-propyl)-amide] | 0.041 | 0.13 | –
CC[C@H](NC(=O)c1c(CN(C)C)n(-c2ccccc2)c(=O)c2ccccc12)c1ccccc1 [Example 2a, 3-Dimethylarrtinomethyl-1-oxo-2 phenyl-1,2-dihydro-isoquinoline-4-carboxylic acid ((S)-1-phenyl-propyl)-amide] | – | – | 0.18
CC[C@H](NC(=O)c1c(CN2CCCCCC2)n(-c2ccccc2)c(=O)c2ccccc12)c1ccccc1 [Example 2ah, 3-Azepan-1-ylmethyl-1-oxo-2-phenyl-1,2-dihydro-isoquinoline-4-carboxylic acid ((S)-1-phenyl-propyl)-amide] | 0.29 | 0.36 | –
CC[C@H](NC(=O)c1c(CN2CCN(CCN3CCCC3)CC2)n(-c2ccccc2)c(=O)c2ccccc12)c1ccccc1 [Example 2bq, 1-Oxo-2-phenyl-3-[4-(2-pyrrolidin-1-yl-ethyl)-pipcrazin-1-ylmethyl]-1,2-dihydro-isoquinolinc-4-carboxylic acid ((S)-1-phenyl-propyl)-amide] | 0.16 | 0.22 | –
CC[C@H](NC(=O)c1c(CN2CCNC(=O)C2)n(-c2ccccc2)c(=O)c2ccccc12)c1ccccc1 [Example 2df, 1-Oxo-3-(3-oxo-piperazin-1-ylmethyl)-2-phenyl-1,2-dihydro-isoquinoline-4-carboxylic acid ((S)-1-phenyl-propyl)-amide] | 0.34 | 0.45 | –
Cc1c(C(=O)NN(c2ccccc2)c2ccccc2)c2ccccc2c(=O)n1-c1ccccc1 [Example 5a, 3-Methyl-1-oxo-2 phenyl-1,2-dihydro-isoquinoline-4-carboxylic acid N',N'-diphenyl-hydrazide] | – | – | 0.055

More lines, in order of falling Ki (human NK3 receptor [1]; [3]), values ahead:

Ki (human NK3 receptor [1]; [3]) [µM] | IC50 (human NK3 receptor [2]) [µM] | Ki (human NK3 receptor [1]; [4]) [µM] | Compound
0.027 | 0.044 | – | Cc1c(C(=O)N[C@H](c2cccc(F)c2)C2CC2)c2cccc(Cl)c2c(=O)n1-c1ccccc1 [Example 1t, 8-Chloro-3-methyl-1-oxo-2-phenyl-1,2-dihydro-isoquinoline-4-carboxylic acid [(S)-cyclopropyl-(3-fluoro-phenyl)-methyl]-amide]
0.023 | 0.023 | – | Cc1c(C(=O)N[C@H](c2ccccc2)C2CCC2)c2cccc(Cl)c2c(=O)n1-c1ccccc1 [Example 1bn, 8-Chloro-3-methyl-1-oxo-2-phenyl-1,2-dihydro-isoquinoline-4-carboxylic acid ((S)cyclobutyl-phenyl-methyl)-amide]
0.021 | 0.081 | – | Cc1c(C(=O)N[C@H](c2cccc(F)c2)C2CCC2)c2cccc(Cl)c2c(=O)n1-c1ccccc1 [Example 1bh, 8-Chloro-3-methyl-1-oxo-2-phenyl-1,2-dihydro-isoquinoline-4-carboxylic acid [(S)-cyclobutyl-(3-fluoro-phenyl)-methyl]-amide]
0.0088 | 0.014 | 0.0082 | CC[C@H](NC(=O)c1c(CN2CCN(CCN3CCOCC3)CC2)n(-c2ccccc2)c(=O)c2ccccc12)c1ccccc1 [Example 2bm, 3-[4-(2-Morpholin-4-yl-ethyl)-piperazin-1-ylmethyl]-1-oxo-2-phenyl-1,2-dihydro-isoquinoline-4-carboxylic acid ((S)-1-phenyl-propyl)-amide]
0.0084 | 0.045 | – | CC[C@H](NC(=O)c1c(CN2CCC(CCN3CCOCC3)CC2)n(-c2ccccc2)c(=O)c2ccccc12)c1ccccc1 [Example 2cw, 3-[4-(2-Morpholin-4-yl-ethyl)-piperidin-1-ylmethyl]-1-oxo-2-phenyl-1,2-dihydro-isoquinoline-4-carboxylic acid ((S)-1-phenyl-propyl)-amide]
